{"source": "patent US10598672B2", "about": "“Methods and compositions for diagnosing and treating loss and/or distortion of taste or smell” (Cyrano Therapeutics, Inc., priority 2014, dated 2020)", "test_system": "patients with hyposmia and hypogeusia", "experiment": "Open-label pilot study oral vs intranasal theophylline: subjective smell and taste function by questionnaire (0-100)", "type": "in vivo, human", "text": "We performed an open-label pilot study in patients with hyposmia and hypogeusia under the following 3 conditions: (1) before treatment, (2) after oral theophylline treatment, and (3) after intranasal theophylline treatment. Under each condition, we performed subjective evaluations of taste or smell functions, quantitative measurements of taste (gustometry) and smell (olfactometry), and measurements of serum theophylline level and body weight.\nSubjective changes in smell and taste function under each study condition were measured by questionnaire before measurements of smell or taste function. Responses were graded on a scale from 0 to 100, with 0 reflecting no subjective response in overall sensory function; 100, return to normal sensory function; and values between 0 and 100 intermediate responses. Overall sensory function was defined as the ability to smell all odors and identify all tastants, although response intensity varied.\nThe 10 patients in this intranasal pilot study entered into the previous oral theophylline study according to a protocol approved by the institutional review board of the Georgetown University Medical Center. In this prior trial, oral theophylline was administered daily in 2 divided doses (at breakfast and lunch) of 200, 400, 600, or 800 mg for 2 to 12 months of treatment. Treatment was divided into 2- to 4-month periods, at which time patients returned to The Clinic for measurements of subjective sensory responses, olfactometry, gustometry, serum theophylline level, and body weight. […] In the 10 patients selected for the intranasal pilot study, oral theophylline treatment was discontinued 3 weeks to 4 months before initiation of the intranasal drug trial. At that time, the mean (SEM) serum theophylline level was unmeasurable in any patient (0 [0] mg/L).\nA pilot study of intranasal theophylline treatment was then initiated among these 10 patients. This trial was an investigator initiated phase 1, open-label, single-source, controlled pilot study. Intranasal drug therapy reflected a compassionate trial of a potentially more useful therapeutic method to improve hyposmia (and hypogeusia) than oral theophylline. Before the intranasal trial, risks and benefits were explained and the patients signed an informed consent.\nThe intranasal administration device was a calibrated 1 mL syringe fitted with a nozzle that fit comfortably into the anterior naris (Wolfe Tory Medical, Inc.) and loaded under sterile conditions with 20 μg of theophylline methylpropyl paraben in a 0.4-mL saline solution (Foundation Care). Patients were instructed to direct the spray superiorly into the nasal cavity but not posteriorly into the nasopharynx. This technique was practiced before study initiation with sterile saline.\nEach patient delivered the theophylline dose in each naris once daily throughout the study. Patients underwent evaluation 1, 2, and 4 weeks during drug use with the same measurements used for the oral study.\nValues for the oral trial were taken from the last measurements made before discontinuation of oral drug treatment and before initiation of the intranasal trial. This period varied from 2 to 12 months after oral treatment initiation and reflected the maximal improvement in sensory function each patient experienced. Values for the intranasal pilot study were taken from measurements obtained after completion of 4 weeks of intranasal treatment.\nThe mean and standard error of the mean for all values obtained at each study condition were compared. Differences were considered significant if P<0.05 by the unpaired t test. Paired comparison tests were also used with differences considered significant if P<0.05 by the t test.", "key": {"[1]": {"conditions": "after discontinuation of intranasal treatment"}}, "data": [{"smiles": "Cn1c(=O)c2[nH]cnc2n(C)c1=O", "note": "[theophylline]", "values": [{"measurement": "patients reporting some persistence of improvement after 10 weeks", "setting": "[1]", "result": "Four"}, {"measurement": "patients with loss of smell and taste function after 6 weeks", "setting": "[1]", "result": 2, "unit": "patients"}, {"measurement": "patients with loss of smell and taste function within 1 week of discontinuation", "setting": "[1]", "result": 2, "unit": "patients"}, {"measurement": "earliest improvement measured after starting treatment", "setting": "intranasal treatment", "result": 1, "unit": "week"}, {"measurement": "improvement measured for taste or smell functions compared with oral treatment", "setting": "intranasal, 4 weeks, subjective", "result": 2, "unit": "fold"}, {"measurement": "patients who reported no improvement", "setting": "of 10 patients, intranasal treatment", "result": 2, "unit": "patients"}, {"measurement": "patients with improved taste or smell acuity / overall improvement in taste or smell functions", "setting": "of 10 patients, intranasal, 20 μg in each naris once daily, 4 weeks", "result": 8, "unit": "patients"}, {"measurement": "patients who reported no improvement", "setting": "of 10 patients, oral treatment", "result": 4, "unit": "patients"}, {"measurement": "patients with improved taste or smell acuity / overall increased taste or smell function", "setting": "of 10 patients, oral, 200 to 800 mg/d for 2 to 12 months", "result": 6, "unit": "patients"}, {"measurement": "earliest improvement of hyposmia measured after", "setting": "oral treatment", "result": 2, "unit": "months"}]}]}
